Source: patent publication US10793568B2, “Hormone receptor modulators for treating metabolic conditions and disorders” (ARDELYX, INC., priority 2016, dated 2020)
Like-named read-outs stand apart in the source and are kept apart here.

Assays:
[1] = biological target: ligand binding domain of human FXR (Homo sapiens (Human), UniProt Q96RI1); assay: FXR ligand binding assay (LanthaScreen TR-FRET, SRC2-2 peptide recruitment); conditions: for Emax: read-out: % Efficacy; for pEC50: -log EC50, concentration required to produce 50% activation
[2] = biological target: human Farnesoid X receptor ligand-binding domain/Gal4 DNA binding domain chimera (Homo sapiens (Human), UniProt Q96RI1); assay: Cell-based assay of FXR activation (FXR-UAS-bla HEK 293T beta-lactamase reporter); conditions: cellular FXR beta-lactamase reporter assay; for Emax: HEK-293T, extent of activation relative to GW4064, read-out: % Efficacy; for EC50: FXR-UAS-bla HEK 293T cells, 16 h, pEC50 = -log EC50
Method in brief: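 Readout is cleavage of the CCF4 FRET substrate (409 nm excitation, blue 447 nm signal) by beta-lactamase, expressed under UAS control after a Gal4–human FXR LBD chimera is activated in HEK 293T cells. Compounds were added as 3-fold dilutions for 16 h at 37 °C in 2% charcoal-stripped FBS medium. Curves were fit to a 3-parameter logistic equation to give pEC50, with % activation relative to GW4064.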

[3] = extent of activation relative to GW4064

Chain of ligand binding domain of human FXR (Q96RI1 262-486): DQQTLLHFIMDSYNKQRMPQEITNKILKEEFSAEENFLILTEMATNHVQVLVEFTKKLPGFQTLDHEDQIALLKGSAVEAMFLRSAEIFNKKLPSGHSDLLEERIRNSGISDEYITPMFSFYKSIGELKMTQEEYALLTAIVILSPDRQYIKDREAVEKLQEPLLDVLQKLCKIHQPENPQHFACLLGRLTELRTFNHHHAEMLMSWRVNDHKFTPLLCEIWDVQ
Chain of human Farnesoid X receptor ligand-binding domain/Gal4 DNA binding domain chimera (Q96RI1 262-486, change not shown): as the sequence (Q96RI1 262-486) above
Chain of human Farnesoid X receptor ligand-binding domain/Gal4 DNA binding domain chimera (P04386 1-147 partner): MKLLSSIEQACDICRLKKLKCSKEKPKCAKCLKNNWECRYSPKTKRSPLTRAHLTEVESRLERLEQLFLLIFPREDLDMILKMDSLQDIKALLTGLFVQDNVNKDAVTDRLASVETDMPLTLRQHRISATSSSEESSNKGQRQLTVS

Row | SMILES | Emax [1] | Emax [2] | EC50 [2] | pEC50 [1] | Emax [1, 3]
1 | O=C(O)c1ccc(N2C[C@@H]3C[C@H]2C[C@H]3OCc2c(C3CCC4(CC3)CC4)noc2C2CC2)cc1 [Compound I-125, 4-[(1S,4S,5R)-5-[(5-cyclopropyl-3-{spiro[2.5]octan-6-yl}-1,2-oxazol-4-yl)methoxy]-2-azabicyclo[2.2.1]heptan-2-yl]benzoic Acid] | 92% | 106% | 251 nM |  | 
2 | O=C(O)c1ccc(N2C(=O)[C@@H]3C[C@H]2C[C@H]3OCc2c(-c3c(Cl)cccc3Cl)noc2C2CC2)cc1C1CC1 [Compound I-319, 2-cyclopropyl-4-[(1S,4R,5R)-5-{[5-cyclopropyl-3-(2,6-dichlorophenyl)-1,2-oxazol-4-yl]methoxy}-3-oxo-2-azabicyclo[2.2.1]heptan-2-yl]benzoic Acid] |  | 113% | 10 nM | 7.4 | 118%
3 | COc1cc(N2C[C@@H]3C[C@H]2C[C@H]3OCc2c(-c3c(Cl)cccc3Cl)noc2C2CC2)ccc1C(=O)O [Compound I-112, 4-((1S,4S,5R)-5-((5-cyclopropyl-3-(2,6-dichlorophenyl)isoxazol-4-yl)methoxy)-2-azabicyclo[2.2.1]heptan-2-yl)-2-methoxybenzoic acid] |  | 100% | 5.01 nM | 9.4 | 116%
4 | COc1ccccc1-c1noc(C2CC2)c1CO[C@@H]1C[C@@H]2C[C@H]1CN2c1nc2c(F)cc(C(=O)O)cc2s1 [Compound I-288, 2-((1S,4S,5R)-5-((5-cyclopropyl-3-(2-methoxyphenyl)isoxazol-4-yl)methoxy)-2-azabicyclo[2.2.1]heptan-2-yl)-4-fluorobenzo[d]thiazole-6-carboxylic acid] |  | 112% | 3.98 nM | 8 | 188%
5 | O=C(O)c1cc(C2CCOC2)c2nc(N3C(=O)[C@@H]4C[C@H]3C[C@H]4OCc3c(-c4c(Cl)cccc4Cl)noc3C3CC3)sc2c1 (stereo partly drawn) [Compound I-299, 2-((1S,4R,5R)-5-((5-cyclopropyl-3-(2,6-dichlorophenyl)isoxazol-4-yl)methoxy)-3-oxo-2-azabicyclo[2.2.1]heptan-2-yl)-4-(tetrahydrofuran-3-yl)benzo[d]thiazole-6-carboxylic acid] |  | 108% | 3.98 nM | 8 | 112%
6 | O=C(O)c1cc(F)c2nc(N3C[C@@H]4C[C@H]3C[C@H]4OCc3c(C4CCC5(CC4)CC5)noc3C3CC3)sc2c1 [Compound I-277, 2-[(1S,4S,5R)-5-[(5-cyclopropyl-3-{spiro[2.5]octan-6-yl}-1,2-oxazol-4-yl)methoxy]-2-azabicyclo[2.2.1]heptan-2-yl]-4-fluoro-1,3-benzothiazole-6-carboxylic Acid] |  | 123% | 158 nM | 8.1 | 106%
7 | O=C(O)CNC(=O)c1ccc(N2C[C@@H]3C[C@H]2C[C@H]3OCc2c(-c3c(Cl)cccc3Cl)noc2C2CC2)cc1 [Compound I-165, 2-({4-[(1S,4S,5R)-5-{[5-cyclopropyl-3-(2,6-dichlorophenyl)-1,2-oxazol-4-yl]methoxy}-2-azabicyclo[2.2.1]heptan-2-yl]phenyl}formamido)acetic Acid] |  | 107% | 20 nM | 8.4 | 140%
8 | O=C(NS(=O)(=O)C1CCCC1)c1ccc(N2C(=O)[C@@H]3C[C@H]2C[C@H]3OCc2c(-c3c(Cl)cccc3Cl)noc2C2CC2)cc1 [Compound I-343, N-(cyclopentylsulfonyl)-4-((1S,4R,5R)-5-((5-cyclopropyl-3-(2,6-dichlorophenyl)isoxazol-4-yl)methoxy)-3-oxo-2-azabicyclo[2.2.1]heptan-2-yl)benzamide] |  | 105% | 0.1 nM | 9 | 176%
9 | O=C(O)c1cc(F)c2nc(N3C[C@H]4C[C@@H]3C[C@H]4OCc3c(-c4c(Cl)cccc4Cl)noc3C3CC3)sc2c1 [Compound I-41, 2-[(1R,4R,5R)-5-{[5-cyclopropyl-3-(2,6-dichlorophenyl)-1,2-oxazol-4-yl]methoxy}-2-azabicyclo[2.2.1]heptan-2-yl]-4-fluoro-1,3-benzothiazole-6-carboxylic Acid] |  | 40% | 2510 nM | >4.5 | 
10 | O=P(O)(O)Cc1ccc(N2C[C@@H]3C[C@H]2C[C@H]3OCc2c(-c3c(Cl)cccc3Cl)noc2C2CC2)cc1 [Compound I-176, ({4-[(1S,4S,5R)-5-{[5-cyclopropyl-3-(2,6-dichlorophenyl)-1,2-oxazol-4-yl]methoxy}-2-azabicyclo[2.2.1]heptan-2-yl]phenyl}methyl)phosphonic Acid] | 120% | 92% | 631 nM | 7.5 | 
11 | CCCS(=O)(=O)NC(=O)c1ccc(N2C[C@@H]3C[C@H]2C[C@H]3OC(=O)c2c(-c3c(Cl)cccc3Cl)noc2C2CC2)c(F)c1 [Compound I-49, (1S,4S,5R)-2-{2-fluoro-4-[(propane-1-sulfonyl)carbamoyl]phenyl}-2-azabicyclo[2.2.1]heptan-5-yl 5-cyclopropyl-3-(2,6-dichlorophenyl)-1,2-oxazole-4-carboxylate] |  | 118% | 3.98 nM | 8 | 188%
12 | O=C(O)c1cc(OC(F)(F)F)c2nc(N3C[C@@H]4C[C@H]3C[C@H]4OCc3c(-c4c(Cl)cccc4Cl)noc3C3(F)CC3)sc2c1 [Compound I-25, 2-[(1S,4S,5R)-5-{[3-(2,6-dichlorophenyl)-5-(1-fluorocyclopropyl)-1,2-oxazol-4-yl]methoxy}-2-azabicyclo[2.2.1]heptan-2-yl]-4-(trifluoromethoxy)-1,3-benzothiazole-6-carboxylic Acid] |  | 102% | 0.398 nM | 8.4 | 172%
13 | O=C(O)c1ccc(N2C[C@@H]3C[C@H]2C[C@H]3OC(=O)c2c(-c3c(Cl)cccc3Cl)noc2C2CC2)cc1 [Compound I-42, 4-[(1S,4S,5R)-5-[5-cyclopropyl-3-(2,6-dichlorophenyl)-1,2-oxazole-4-carbonyloxy]-2-azabicyclo[2.2.1]heptan-2-yl]benzoic Acid] |  | 110% | 39.8 nM | 7.6 | 166%
14 | CC(C)c1cc(C(=O)O)cc2sc(N3C[C@@H]4C[C@H]3C[C@H]4OCc3c(-c4c(Cl)cccc4Cl)noc3C3CC3)nc12 [Compound I-247, 2-[(1S,4S,5R)-5-{[5-cyclopropyl-3-(2,6-dichlorophenyl)-1,2-oxazol-4-yl]methoxy}-2-azabicyclo[2.2.1]heptan-2-yl]-4-(propan-2-yl)-1,3-benzothiazole-6-carboxylic Acid] |  | 114% | 2 nM | 8.5 | 128%
15 | O=C(O)c1ccc(N2C[C@H]3C[C@@H]2C[C@@H]3OCc2c(-c3c(Cl)cccc3Cl)noc2C2CC2)cc1 [Compound I-132] |  |  | < 316 nM |  | 98%
16 | Cc1cccc(C)c1-c1noc(C2CC2)c1CO[C@@H]1C[C@@H]2C[C@H]1CN2c1ccc(C(=O)O)cc1 [Compound I-117, 4-[(1S,4S,5R)-5-{[5-cyclopropyl-3-(2,6-dimethylphenyl)-1,2-oxazol-4-yl]methoxy}-2-azabicyclo[2.2.1]heptan-2-yl]benzoic Acid] |  | 100% | 7.94 nM | 8.2 | 113%
